The text below walks through data of PMC5829162, “Rational Design, Synthesis and Biological Evaluation of Pyrimidine-4,6-diamine derivatives as Type-II inhibitors of FLT3 Selective Against c-KIT” (Scientific Reports, 2018).

Where only a bound is given, the exact number is not on record here.

Data set [1] concerns Molm14 par. Nature of the data set: Cell proliferation (CellTiter-Glo, 48 h), Molm14 par. Type of data set: cell-based. The following applies: Homo sapiens, MOLM-14. The text has this: (§1) Stable BaF3 populations expressing activated FLT3 were generated by retroviral spinfection with the appropriate mutated plasmid followed by selection and growth factor withdrawal as previously described. The BaF3 cell line was originally obtained from the laboratory of Charles Sawyers and has not been authenticated. MV411 and Molm14 cells were obtained from the laboratory of Scott Kogan and authenticated by Promega STR analysis in June 2013. All cell lines were mycoplasma-free. Cells were incubated with compounds for 48 hours and proliferation was assessed using CellTiter-Glo (Promega; Madison, WI) according to the manufacturer’s recommendation on a SpectraMax M3 microplate reader using SpectraMax Software (Molecular Devices; Sunnyvale, CA). All cell viability data shown is reflective of experiments performed a minimum of three times. […]
(§2) S13. Cell Cultures: Stable BaF3 populations expressing activated FLT3 were generated by retroviral spinfection with the appropriate mutated plasmid followed by selection and growth factor withdrawal as previously described .4 The BaF3 cell line was originally obtained from the laboratory of Charles Sawyers and has not been authenticated. MV411 and Molm14 cells were obtained from the laboratory of Scott Kogan and authenticated by Promega STR analysis in June
(§3) 2013. All cell lines were mycoplasma -free. Cells were incubated with compounds for 48 hours and proliferation was assessed using CellTiter -Glo (Promega; Madison, WI) according to the manufacturer’s recommendation on a SpectraMax M3 microplate reader using SpectraMax Software (Molecular Devices; Sunnyvale, CA). All cell viability data shown is reflective of experiments performed a minimum of three times.
A general note: Cellular ATP, detected with luciferase, serves as a proxy for viable cell number.

For data set [2], the system named is Molm14^D835Y. The experiment in a line: Cell proliferation (CellTiter-Glo, 48 h), Molm14 D835Y. Type of data set: cell-based. The note with it: Homo sapiens, MOLM-14; Molm14^D835Y, 48 hours.
Text: as §1, §2, §3

The test system of data set [3] is MV4–11 AML cells. Nature of the data set: Cell proliferation (CellTiter-Glo, 48 h), MV4-11. It is filed as cell-based. The following applies: Homo sapiens; MV4–11, 48 hours.
Text: as §1, §2, §3

Data set [4] addresses T1, FLT3 kinase (Homo sapiens, UniProt P36888).
T1 construct: purchased Invitrogen
T1 sequence (P36888 27-993): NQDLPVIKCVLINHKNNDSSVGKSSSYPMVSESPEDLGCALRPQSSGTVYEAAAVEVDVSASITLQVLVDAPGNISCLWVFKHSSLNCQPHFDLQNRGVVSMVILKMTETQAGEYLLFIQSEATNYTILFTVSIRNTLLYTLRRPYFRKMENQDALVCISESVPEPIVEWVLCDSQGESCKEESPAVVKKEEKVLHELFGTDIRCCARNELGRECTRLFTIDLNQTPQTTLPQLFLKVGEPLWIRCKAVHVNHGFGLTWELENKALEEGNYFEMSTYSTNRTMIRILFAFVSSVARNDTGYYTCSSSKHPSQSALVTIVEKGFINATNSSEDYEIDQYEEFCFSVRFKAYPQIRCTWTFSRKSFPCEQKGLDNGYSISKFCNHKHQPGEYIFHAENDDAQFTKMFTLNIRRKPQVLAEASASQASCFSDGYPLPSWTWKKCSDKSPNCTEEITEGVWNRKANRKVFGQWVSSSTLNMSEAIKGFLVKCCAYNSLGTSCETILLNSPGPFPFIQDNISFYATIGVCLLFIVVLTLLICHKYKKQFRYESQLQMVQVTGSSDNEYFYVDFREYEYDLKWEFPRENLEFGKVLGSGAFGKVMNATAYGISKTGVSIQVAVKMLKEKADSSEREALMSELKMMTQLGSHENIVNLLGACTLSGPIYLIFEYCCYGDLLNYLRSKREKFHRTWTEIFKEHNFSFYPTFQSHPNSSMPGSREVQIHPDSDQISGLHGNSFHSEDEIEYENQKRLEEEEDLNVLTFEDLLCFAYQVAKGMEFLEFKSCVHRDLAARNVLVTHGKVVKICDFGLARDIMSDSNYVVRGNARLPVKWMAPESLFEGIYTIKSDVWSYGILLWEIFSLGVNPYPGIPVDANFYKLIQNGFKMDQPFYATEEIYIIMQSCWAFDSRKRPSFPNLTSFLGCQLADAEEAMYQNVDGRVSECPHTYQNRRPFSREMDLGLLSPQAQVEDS
Nature of the data set: Biochemical enzyme inhibition assay (microfluidics, Caliper EZ Reader II), FLT3. The note with it: for IC50: in vitro kinase assay, 60 min pre-incubation, ATP 190 µM, three independent experiments, read-out: FLT3 IC50 (nM) ± SD; for LE: ligand efficiency for FLT3 inhibition. On the procedure:
Kinase activity was measured in a microfluidics assay that monitors the separation of a phosphorylated product from substrate[31],[32]. […] After, 1 μL was transferred into a 384-well polypropylene assay plate (Greiner, Frickenhausen, Germany). The FLT3 enzyme (Invitrogen™, Grand Island, USA) was diluted in kinase buffer to a concentration of 2 nM and 5 µL of the enzyme mixture was transferred to the assay plate. The inhibitors/FLT3 enzyme were incubated for 60 minutes with minor shaking. […] For positive control, no inhibitor was added. For negative control, no enzyme was added. For running control, quizartinib was utilized. The plate was run until 10–20% conversion based on the positive control wells. The following separation conditions were utilized: upstream voltage −500V; downstream voltage, −1900V; chip pressure −0.8. Percent inhibition was measured for each well comparing starting peptide to phosphorylated product peaks relative to the baseline. Dose response curves, spanning the IC50 dose, were generated in GraphPad Prisim 6 and fit to an exponential one-phase decay line and IC50 values were obtained from the half-life value of the curve. IC50 values were generated in duplicate and error was calculated from the standard deviation between values.
S10. Biochemical Inhibition Assay:1,2 Kinase activity was measured in a microfluidics assay that monitors the separation of a phosphorylated product from substrate. The assay was run using a 12-sipper chip on a Caliper EZ Reader II (PerkinElmer®, Walthman, USA) with separation […]
Walthman, USA]). In 96-well polypropylene plates (Greiner, Frickenhausen, Germany) […]
After, 1 μL was transferred into a 384-well polypropylene assay plate (Greiner, Frickenhausen, Germany). The FLT3 enzyme (Invitrogen™, Grand Island, USA) was diluted in kinase buffer to a concentration of 2 nM and 5 µL of the enzyme mixture was transferred to the assay plate. The inhibitors/FLT3 enzyme were incubated for 60 minutes with minor shaking. A substrate mix was prepared containing ATP (Ambresco®, Solon, USA) and […]
USA) dissolved in kinase buffer, and 5 µL of the substrate mix was added to the assay plate.
For positive control, no inhibitor was added. For negative control, no enzyme was added. For running control, quizartinib was utilized. The plate was run until 10-20% conversion based on the positive control wells. The following separation conditions were utilized: upstream voltage -500V; downstream voltage, -1900V; chip pressure - 0.8. Percent inhibition was measured for each well comparing starting peptide to phosphorylated product peaks relative to the baseline. Dose response curves, spanning the IC50 dose, were generated in GraphPad Prisim 6 and fit to an exponential one-phase decay line and IC50 values were obtained from the half-life value of the curve. IC50 values were generated in duplicate and error was calculated from the standard deviation between values. […]

In data set [5] the test system is Ba/F3 FLT3-ITD. Nature of the data set: Cell proliferation (CellTiter-Glo, 48 h), Ba/F3 FLT3-ITD. It is filed as cell-based.
Text: as §1, §2, §3

In data set [6] the test system is Molm14^F691L. The experiment in a line: Cell proliferation (CellTiter-Glo, 48 h), Molm14 F691L. The note with it: Homo sapiens, MOLM-14; Molm14^F691L, 48 hours. Type of data set: cell-based.
Text: as §1, §2, §3

The test system of data set [7] is FLT3-driven cell lines. The experiment in a line: Cell-based studies, FLT3-driven cell lines overall. The note with it: result in words.
Text: as §1
S13. […]
2013. […] Cells were incubated with compounds for 48 hours and proliferation was assessed using CellTiter -Glo (Promega; Madison, WI) according to the manufacturer’s recommendation on a SpectraMax M3 microplate reader using SpectraMax Software (Molecular Devices; Sunnyvale, CA). […]

As to `CNc1cc(Nc2ccc(CC(=O)Nc3cc(C(C)(C)C)nn3C)cc2)ncn1` [13b, 2-(4-(6-(Methylamino)pyrimidin-4-ylamino)phenyl)-N-(3-tert-butyl-1-methyl-1H-pyrazol-5-yl)acetamide], the melting point lay within 194 to 196 °C. The molecule also showed a GI50 in data set [1] of 187 nM. In data set [2], this molecule came in with a GI50 of 2230 nM. Besides, halving of growth in data set [3] (GI50) required 80.6 nM. Also, in data set [4], the IC50 is 37.5 ± 13 nM and the LE was 0.35. Besides, in data set [5], the GI50 was found to be 158 nM. The molecule further had a GI50 in data set [6] of 1350 nM.
`Cn1nc(C(C)(C)C)cc1NC(=O)Cc1ccc(Nc2cc(NCCCN3CCCC3)ncn2)cc1` [13d, 2-(4-(6-(3-(Pyrrolidin-1-yl)propylamino)pyrimidin-4-ylamino)phenyl)-N-(3-tert-butyl-1-methyl-1H-pyrazol-5-yl)acetamide]: the “inhibition of FLT3-driven cellular growth” value in data set [7] was “failed to effectively inhibit FLT3-driven cellular growth”. Further, the concentration for 50% growth inhibition (GI50) in data set [3] worked out at 2250 nM. For the same molecule, in data set [4], the IC50 turned out to be 377 ± 20 nM and the LE is reported as 0.24.
`CNc1cc(Nc2ccc(CC(=O)Nc3cccc(C(F)(F)F)c3)cc2)ncn1` [13r, 2-(4-(6-(Methylamino)pyrimidin-4-ylamino)phenyl)-N-(3-(trifluoromethyl)phenyl) acetamide] yielded a melting point of 216 to 218 °C. Besides, in data set [1], the GI50 was 187 nM. Moreover, growth in data set [2] was halved (GI50) at 2230 nM. For the same molecule, it took 80.6 nM to inhibit growth in data set [3] by half (GI50). In addition, in data set [4], the IC50 was 411 ± 236 nM and the LE came out at 0.30. The same molecule came in with a GI50 in data set [5] of 266 nM. The GI50 in data set [6] is 1350 nM.
The molecule `CNc1cc(Nc2ccc(CC(=O)Nc3ccc(S(C)(=O)=O)cc3)cc2)ncn1` [13v, 2-(4-(6-(methylamino)pyrimidin-4-ylamino)phenyl)-N-(4-(methylsulfonyl)phenyl) acetamide] had a melting point of 220 to 222 °C. The GI50 in data set [1] was > 10000 nM. The GI50 in data set [2] is > 10000 nM. In addition, in data set [3], the GI50 was > 10000 nM. In data set [4], the IC50 came to 2120 ± 401 nM and the LE came out at 0.27. Further, in data set [5], the GI50 was > 10000 nM. Moreover, the GI50 in data set [6] was > 10000 nM.

As usually defined, the GI50 is the concentration giving 50% growth inhibition. Low values mean more potent growth inhibition, high ones less potent growth inhibition. One may read the IC50 as the point on the concentration scale where inhibition reaches its midpoint. What is called melting point is the temperature of the solid-liquid transition.
